Data reported in paper PMC11286144 (Archives of biochemistry and biophysics, 2024).
Values joined by “and” are separate entries in the source; they are usually repeats but may differ in a detail not shown here. Equal entries are not always repeated.

Assays:
Assay in all cases: BFC debenzylase activity assay
K257A CYP3A4 = K257A CYP3A4 (Homo sapiens, UniProt P08684, K257A)
CYP3A4 (WT) = CYP3A4 (WT) (Homo sapiens, UniProt P08684)
K266A CYP3A4 = K266A CYP3A4 (Homo sapiens, UniProt P08684, K266A)
Chain of K266A CYP3A4 (P08684 whole entry K266A): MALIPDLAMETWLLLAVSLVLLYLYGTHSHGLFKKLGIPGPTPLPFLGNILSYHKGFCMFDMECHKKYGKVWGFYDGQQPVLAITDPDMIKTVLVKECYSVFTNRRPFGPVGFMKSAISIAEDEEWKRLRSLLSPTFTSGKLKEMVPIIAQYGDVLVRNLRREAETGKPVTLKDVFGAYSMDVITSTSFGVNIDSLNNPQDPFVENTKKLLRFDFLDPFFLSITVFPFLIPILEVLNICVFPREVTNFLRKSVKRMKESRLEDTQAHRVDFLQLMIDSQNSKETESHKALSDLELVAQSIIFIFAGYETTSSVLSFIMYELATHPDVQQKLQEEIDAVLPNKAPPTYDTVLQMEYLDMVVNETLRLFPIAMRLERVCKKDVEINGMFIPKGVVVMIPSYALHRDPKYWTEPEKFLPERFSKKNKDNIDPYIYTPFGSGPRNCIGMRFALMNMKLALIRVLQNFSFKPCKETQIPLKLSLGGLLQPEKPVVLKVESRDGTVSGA

Chain of CYP3A4 (WT) (P08684 whole entry): as the sequence (P08684 whole entry K266A) above, with A266K counted along it
Chain of K257A CYP3A4 (P08684 whole entry K257A): as the sequence (P08684 whole entry K266A) above, with K257A, A266K counted along it

For `O=c1cc(C(F)(F)F)c2ccc(OCc3ccccc3)cc2o1` [BFC], the “nH (Hill coefficient)” value (K257A CYP3A4; K257A CYP3A4) was 1.0, the “higher Vmax than wild type” value (K257A CYP3A4; K257A CYP3A4 vs WT) was 28% and the “nH (Hill coefficient)” value (CYP3A4 (WT)) was 1.8 and 1.8 ± 0.1. For the same molecule, the “nH (Hill coefficient)” value (K266A CYP3A4; K266A CYP3A4) was 1.9 and 1.9 ± 0.1 and the “higher Vmax than wild type” value (K266A CYP3A4; K266A CYP3A4 vs WT) was 44%.
